Results taken from ChEMBL document CHEMBL1154508, “Discovery of GSK345931A: An EP(1) receptor antagonist with efficacy in preclinical models of inflammatory pain” (Bioorg Med Chem Lett, 2009).

What was measured:
[1] = Drug level in blood of sub-chronic rat joint pain efficacy model satellite animal group at 5 mg/kg bid measured on day 5 after 1 hr post dose; format: ADME, organism-based; design: dose 5 mg/kg; conditions: read-out: Drug uptake
[2] = Drug level in blood of sub-chronic rat joint pain efficacy model satellite animal group at 5 mg/kg bid measured on day 1 after 1 hr post dose; format: ADME, organism-based; design: dose 5 mg/kg; conditions: read-out: Drug uptake
[3] = Half life in rat at 1 mg/kg, iv; format: ADME, organism-based; design: dose 1 mg/kg, route intravenous; conditions: in vivo
[4] = Drug level in brain of sub-chronic rat joint pain efficacy model treatment group at 20 mg/kg bid measured on day 5 after 1 hr post dose; format: ADME, organism-based; design: dose 20 mg/kg; conditions: read-out: Drug uptake
[5] = Ratio of drug level in brain to blood in mouse at 3 mg/kg, po after 0.5 hr; format: ADME, organism-based; design: dose 3 mg/kg, route oral
[6] = molecular target: T1, Prostaglandin E2 receptor EP1 subtype (Homo sapiens, UniProt P34995); assay: Binding affinity to EP1 receptor
T1 sequence (P34995 whole entry): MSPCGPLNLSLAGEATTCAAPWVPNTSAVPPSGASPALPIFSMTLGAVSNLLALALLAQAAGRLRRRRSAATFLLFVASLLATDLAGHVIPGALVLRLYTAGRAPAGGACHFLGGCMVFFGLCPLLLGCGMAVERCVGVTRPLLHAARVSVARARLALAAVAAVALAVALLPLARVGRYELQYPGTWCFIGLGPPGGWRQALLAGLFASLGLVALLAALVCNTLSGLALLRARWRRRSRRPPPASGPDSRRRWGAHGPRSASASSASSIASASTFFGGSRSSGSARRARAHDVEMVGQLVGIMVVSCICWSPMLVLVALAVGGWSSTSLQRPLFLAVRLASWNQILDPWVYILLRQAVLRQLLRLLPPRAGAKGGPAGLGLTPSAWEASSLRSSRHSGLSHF

[7] = Drug level in blood of sub-chronic rat joint pain efficacy model treatment group at 20 mg/kg bid measured on day 5 after 1 hr post dose; format: ADME, organism-based; design: dose 20 mg/kg; conditions: read-out: Drug uptake
[8] = Ratio of drug level in brain to blood in rat at 0.28 mg/kg/hr, iv for 18 hrs; format: ADME, organism-based; design: route intravenous
[9] = Fraction unbound in rat brain
[10] = Ratio of drug level in brain to blood of sub-chronic rat joint pain efficacy model treatment group at 5 mg/kg bid measured on day 5 after 1 hr post dose; format: ADME, organism-based; design: dose 5 mg/kg
[11] = Solubility in fasted state simulated intestinal fluid after 2 hrs; format: physicochemical
[12] = molecular target: T2, Peroxisome proliferator-activated receptor gamma (Homo sapiens, UniProt P37231); assay: Activity at PPARgamma
T2 sequence (P37231 whole entry): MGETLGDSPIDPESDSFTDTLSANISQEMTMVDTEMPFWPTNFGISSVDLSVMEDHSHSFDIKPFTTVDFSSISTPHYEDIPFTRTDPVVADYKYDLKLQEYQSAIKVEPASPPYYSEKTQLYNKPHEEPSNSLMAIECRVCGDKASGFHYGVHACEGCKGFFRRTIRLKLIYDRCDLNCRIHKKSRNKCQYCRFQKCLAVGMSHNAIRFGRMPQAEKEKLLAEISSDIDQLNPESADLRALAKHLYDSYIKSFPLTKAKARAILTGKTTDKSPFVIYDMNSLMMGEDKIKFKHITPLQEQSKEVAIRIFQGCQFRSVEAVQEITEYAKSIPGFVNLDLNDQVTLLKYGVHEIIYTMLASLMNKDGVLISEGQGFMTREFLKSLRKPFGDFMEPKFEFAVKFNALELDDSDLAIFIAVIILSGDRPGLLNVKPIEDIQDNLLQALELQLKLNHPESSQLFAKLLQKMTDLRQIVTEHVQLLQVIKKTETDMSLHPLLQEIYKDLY

[13] = Metabolic stability assessed as intrinsic clearance per gram of monkey liver microsomes; format: ADME, Macaca mulatta, Microsome; conditions: rhesus monkey
[14] = molecular target: T3, Peroxisome proliferator-activated receptor alpha (Homo sapiens, UniProt Q07869); assay: Binding affinity to PPARalpha
T3 sequence (Q07869 whole entry): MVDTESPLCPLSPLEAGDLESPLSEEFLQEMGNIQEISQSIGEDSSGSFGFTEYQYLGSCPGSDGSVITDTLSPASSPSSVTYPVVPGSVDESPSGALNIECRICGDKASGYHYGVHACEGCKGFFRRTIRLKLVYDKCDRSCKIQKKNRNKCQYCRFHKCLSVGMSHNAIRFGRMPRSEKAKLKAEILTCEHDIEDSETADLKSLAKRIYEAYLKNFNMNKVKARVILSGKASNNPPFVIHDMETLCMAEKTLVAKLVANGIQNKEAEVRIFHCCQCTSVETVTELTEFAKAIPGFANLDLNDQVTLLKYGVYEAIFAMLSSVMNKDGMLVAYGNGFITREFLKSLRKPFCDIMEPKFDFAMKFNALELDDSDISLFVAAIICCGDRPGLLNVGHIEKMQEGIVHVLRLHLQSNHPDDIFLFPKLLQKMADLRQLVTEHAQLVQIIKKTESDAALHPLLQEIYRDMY

[15] = Lipophilicity, log D at pH 7.4; format: physicochemical; conditions: buffer
Liver microsomes = assay: Metabolic stability assessed as intrinsic clearance per gram of rat liver microsomes; format: ADME, Microsome
[16] = molecular target: T4, Peroxisome proliferator-activated receptor delta (Homo sapiens, UniProt Q03181); assay: Activity at PPARdelta
T4 sequence (Q03181 whole entry): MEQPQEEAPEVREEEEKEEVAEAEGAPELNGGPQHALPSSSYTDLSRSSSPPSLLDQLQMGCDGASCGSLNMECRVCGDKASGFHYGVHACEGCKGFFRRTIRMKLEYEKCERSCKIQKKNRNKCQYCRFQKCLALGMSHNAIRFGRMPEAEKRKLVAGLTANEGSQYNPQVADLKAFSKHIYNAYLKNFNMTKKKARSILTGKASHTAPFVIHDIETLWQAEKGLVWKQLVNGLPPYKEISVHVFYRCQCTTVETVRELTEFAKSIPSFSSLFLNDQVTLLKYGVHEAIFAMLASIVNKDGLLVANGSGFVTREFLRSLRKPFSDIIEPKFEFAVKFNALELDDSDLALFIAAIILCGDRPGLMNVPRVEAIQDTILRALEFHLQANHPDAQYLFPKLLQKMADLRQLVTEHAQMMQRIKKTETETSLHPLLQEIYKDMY

Blood = assay: Fraction unbound in rat blood; format: ADME, tissue-based
[17] = Drug level in rat brain at 0.28 mg/kg/hr, iv for 18 hrs; format: ADME, organism-based; design: route intravenous; conditions: read-out: Drug uptake
[18] = Ratio of drug level in brain to blood of sub-chronic rat joint pain efficacy model satellite animal group at 5 mg/kg bid measured on day 5; format: ADME, organism-based; design: dose 5 mg/kg
[19] = Ratio of drug level in brain to blood in complete Freund's adjuvant-induced rat inflammatory pain model at 2 mg/kg, po after 1 hr; format: ADME, organism-based; design: dose 2 mg/kg, route oral

`CC(C)COc1ccc(Cl)cc1-c1ccccc1-c1cccc(C(=O)[O-])n1.[Na+]` showed a concentration at 1 h [1] of 1.67 µM, a concentration at 1 h [2] of 5.27 µM and a half-life [3] of 3.5 h. For the same molecule, the concentration at 1 h [4] was 3.21 µM, the Kp at 0.5 h [5] was 0.24 and the IC50 [6] was 0.0158 µM. For the same molecule, the concentration at 1 h [7] was 5.53 µM, the Kp at 18 h [8] was 0.33 and the Fu [9] was 0.53%. For the same molecule, the Kp at 1 h [10] was 0.57, the solubility at 2 h [11] was 1030 µg/mL and the EC50 [12] was 3.98 µM. For the same molecule, the CL [13] was 8 mL/min/g, the Ki [14] was over 20 µM and the logD [15] was 1.9. It also gave a CL (Liver microsomes) of 0.7 mL/min/g, an EC50 [16] of over 10 µM and a Fu (Blood) of 0.5%. The concentration at 18 h [17] was 0.55 µM, the Kp at 5 day [18] was 0.54 and the Kp at 1 h [19] was 0.22.
